Laboratory results reported in patent US20060258755A1, “Preparation of sevoflurane with negligible water content” (priority 2005, published 2006).

Columns and labels:
Assay type in all cases: physicochemical
[1] = Storage stability of sevoflurane stored with Type 3A molecular sieve in Type III glass
Description: Another sample of sevoflurane (40 g) was stored with 2 g of Type 3A molecular sieve (an alumino silicate that contains Al2O3, identified as a Lewis acid in the '176 patent) in July 2000. This sample was in a new Type III glass container for six months at ambient temperatures.
Starting in July 2000, 40 g of sevoflurane (Abbott Laboratories Lot # 35-621 -DK-03) was stored in the presence of 2 g of Type 3A molecular sieve for 20 months in a dried, new Type III amber glass bottle at room temperature. The initial water content was 218 ppm and was essentially zero after 16 hours of contact with the molecular sieve (as determined by Karl Fischer, a method known to those skilled in the art with a detection limit of about 1 ppm or less).
Starting in July 2000, a sample of sevoflurane (from the lot described in Example 1) was held at room temperature (25-27° C.) over Type 3A molecular sieve for two-and-a-half months in a dried, new Type III amber glass bottle.

[2] = Water saturation limit of sevoflurane; conditions: second sample of Example 4 (28 g)
Experimental: Currently available processes for the preparation of sevoflurane generally give a product containing dissolved water up to 0.12 to 0.14 wt %, or 1200 to 1400 ppm, the approximate water saturation limit of sevoflurane. […] This sample was sealed in September 2000 in a new Type III glass bottle as previously described and stored at 40° C. for four weeks.

[3] = Storage stability of sevoflurane in the presence of iron oxide (Fe2O3, a Lewis acid)
Experimental: A sample of sevoflurane containing 30 ppm of water and 0.05 g Fe2O3 (iron oxide) was placed in a new Type III amber glass bottle in July 2000 and sealed as previously described. […] This sample was sealed in September 2000 in a new Type III glass bottle as previously described and stored at 40° C. for four weeks.

[4] = Stability trial of sevoflurane dried over Type 3A molecular sieve, packaged in glass bottles or epoxy-lined drums; conditions: for decomposition / % sevoflurane by gas chromatography: dried to 0 ppm water, 30 days at 40° C. and 75% relative humidity; for % sevoflurane by gas chromatography: initial 99.99%
Experimental: (§1) Sevoflurane (99.99%, produced January 2005) was dried over Type 3A molecular sieve using a continuous flow bed apparatus to a water-composition of 0.0 wt % (or 0 ppm) as measured by Karl Fischer. 100 ml of sevoflurane was packaged into a Type III amber glass bottle and sealed for a 30-day stability trial at 40° C. and 75% relative humidity. At the end of this time, the sevoflurane was 99.99% as determined by gas chromatography.
as §1, with “water composition” for “water-composition”, “250” for “100”
Sevoflurane (99.99%, produced January 2005) was dried over Type 3A molecular sieve using a continuous flow bed apparatus to a water composition of 0.0 wt % (or 0 ppm) as measured by Karl Fischer. 28.1 kg of sevoflurane was packaged in a five-gallon epoxy-lined drum and sealed for a 30-day stability trial at 40° C. and 75% relative humidity. At the end of this time, the % sevoflurane was 99.99% as determined by gas chromatography.
Purified Sevoflurane was dried over Type 3A molecular sieve using a continuous flow bed apparatus to negligible or near-negligible water compositions as measured by Karl Fischer. The dried material was packaged into 100 mL or 250 mL Type III amber glass bottles or into 5 gal epoxy-lined drums and subsequently stored as part of a stability trial under controlled or ambient conditions.
The sevoflurane used in examples 8-11 was produced by the method described in pending U.S. patent application Ser. No. 11/281,293, filed Nov. 17, 2005, the disclosure of which is incorporated herein by reference.

[5] = Storage stability of sevoflurane in Type III glass bottle (gas chromatography, Karl Fischer)
Experimental: In one experiment initiated in August 2000, sevoflurane (Abbott Laboratories, Lot #61-339-DK, Expiration Date Aug. 1, 2001) was dried to 0 ppm water content using Type 3A molecular sieve. Drying was performed by mixing the sevoflurane with molecular sieves and then allowing these materials to stand together for several hours. The water content was determined by Karl Fischer analysis. A sample of the dried sevoflurane was placed in a new amber Type III glass bottle, which had been dried at 100° C. for 2 hours. The bottle was sealed with a black phenolic/urea resin cap and a polyseal liner of polyethylene resin and shrink-wrapped or wrapped with Teflon® tape and shrink-wrapped. The sample was then held at room temperature (25-27° C.) and at ambient relative humidity. […] One undried lot of sevoflurane from Abbott Laboratories (Lot #0 335 70 K, Expiration Date Apr. 1, 1997, stored in a Type III bottle) was analyzed in May and October 2000. This sevoflurane was 97 ppm H2O and 99.9916% sevoflurane by gas chromatography.

[6] = 40 g with 2 g Type 3A molecular sieve, new Type III glass container, six months at ambient temperatures
[7] = lot of Example 1 over Type 3A molecular sieve, dried, new Type III amber glass bottle, room temperature (25-27° C.), two-and-a-half months
[8] = 28 g saturated with water (1235 ppm), 0.07 g Fe2O3, new Type III glass bottle, 40° C. for four weeks
[9] = 30 ppm water, 0.05 g Fe2O3, new Type III amber glass bottle, four weeks at 40° C.
[10] = 5 gal epoxy-lined drum, Mfg. April 2005, initial water 6 ppm, 60 days, 40 C./75% RH
[11] = 5 gal epoxy-lined drum, Mfg. April 2005, initial water 10 ppm, 9 months, Ambient
[12] = 5 gal epoxy-lined drum, Mfg. February 2005, initial water 0 ppm, 12 months, 40 C./75% RH
[13] = 5 gal epoxy-lined drum, Mfg. February 2005, initial water 0 ppm, 12 months, Ambient
[14] = 5 gal epoxy-lined drum, Mfg. January 2005, initial water 0 ppm, 6 months, 40 C./75% RH
[15] = 5 gal epoxy-lined drum, Mfg. January 2005, initial water 0 ppm, 90 days, Ambient
[16] = 100 mL Type III amber glass bottle, Mfg. February 2005, initial water 0 ppm, 9 months, 25 C./60% RH
[17] = 100 mL Type III amber glass bottle, Mfg. February 2005, initial water 0 ppm, 60 days, 40 C./75% RH
[18] = 250 mL Type III amber glass bottle, Mfg. April 2005, initial water 5 ppm, 6 months, 25 C./60% RH
[19] = 250 mL Type III amber glass bottle, Mfg. April 2005, initial water 5 ppm, 90 days, 40 C./75% RH
[20] = 250 mL Type III amber glass bottle, Mfg. February 2005, initial water 0 ppm, 9 months, 25 C./60% RH
[21] = 250 mL Type III amber glass bottle, Mfg. February 2005, initial water 0 ppm, 60 days, 40 C./75% RH
[22] = 250 mL Type III amber glass bottle, Mfg. January 2005, initial water 0 ppm, 12 months, 25 C./60% RH
[23] = 28.1 kg in five-gallon epoxy-lined drum
[24] = 100 ml in Type III amber glass bottle
[25] = 250 ml in Type III amber glass bottle
[26] = undried Abbott Lot #0 335 70 K, 97 ppm H2O, Type III bottle, ambient temperature for about five years

FCOC(C(F)(F)F)C(F)(F)F [sevoflurane, 1,1,1,3,3,3-hexafluoroisopropyl fluoromethyl ether]
decomposition ([1]; 40 g Abbott Lot # 35-621 -DK-03 with 2 g Type 3A molecular sieve, dried, new Type III amber glass bottle, room temperature, 20 months): no evidence of any decomposition | % sevoflurane by gas chromatography ([1]; 40 g Abbott Lot # 35-621 -DK-03 with 2 g Type 3A molecular sieve, dried, new Type III amber glass bottle, room temperature, 20 months, initial water 218 ppm, essentially zero after 16 hours): 99.997% | % sevoflurane by gas chromatography [1, 6]: greater than 99.99% | decomposition [1, 6]: No decomposition | % sevoflurane by gas chromatography [1, 7]: greater than 99.99% | decomposition [1, 7]: no decomposition | water content of sevoflurane saturated with water [2]: 1235 ppm | decomposition [3, 8]: no decomposition | purity by gas chromatography [3, 8]: 99.97% | % (CF3)2CHOCH2OCH(CF3)2 decomposition product by gas chromatographic analyses [3, 9]: 6.33% | % (CF3)2CHOH decomposition product by gas chromatographic analyses [3, 9]: 0.49% | % sevoflurane by gas chromatographic analyses [3, 9]: 90.7% | Final Comp. [4, 10]: 99.998% | Result (decomposition) [4, 10]: No | Final Comp. [4, 11]: 99.998% | Result (decomposition) [4, 11]: No | Final Comp. [4, 12]: 99.98% | Result (decomposition) [4, 12]: No | Final Comp. [4, 13]: 99.98% | Result (decomposition) [4, 13]: No | Final Comp. [4, 14]: 99.98% | Result (decomposition) [4, 14]: No | Final Comp. [4, 15]: 99.99% | Result (decomposition) [4, 15]: No | Final Comp. [4, 16]: 99.98% | Result (decomposition) [4, 16]: No | Final Comp. [4, 17]: 99.99% | Result (decomposition) [4, 17]: No | Final Comp. [4, 18]: 99.997% | Result (decomposition) [4, 18]: No | Final Comp. [4, 19]: 99.997% | Result (decomposition) [4, 19]: No | Final Comp. [4, 20]: 99.98% | Result (decomposition) [4, 20]: No | Final Comp. [4, 21]: 99.98% | Result (decomposition) [4, 21]: No | Final Comp. [4, 22]: 99.99% | Result (decomposition) [4, 22]: No | decomposition [4, 23]: no decomposition | % sevoflurane by gas chromatography [4, 23]: 99.99% | decomposition [4, 24]: no decomposition | % sevoflurane by gas chromatography [4, 24]: 99.99% | decomposition [4, 25]: no decomposition | % sevoflurane by gas chromatography [4, 25]: 99.99% | % sevoflurane by gas chromatography ([5]; Abbott Lot #61-339-DK dried to 0 ppm water with Type 3A molecular sieve, new amber Type III glass bottle, room temperature (25-27° C.), ambient relative humidity, four weeks): 99.998% | water (Karl Fischer analysis) at end of stability run ([5]; Abbott Lot #61-339-DK dried to 0 ppm water, new amber Type III glass bottle, room temperature (25-27° C.), ambient relative humidity, four weeks): 68 ppm | decomposition ([5]; Abbott Lot #61-339-DK dried to 0 ppm water, new amber Type III glass bottle, room temperature (25-27° C.), four weeks): no decomposition | % sevoflurane by gas chromatography [5, 26]: 99.9916% | decomposition [5, 26]: without decomposition
